# Experimental data as given in patent US9499538B2, “Estrogen receptor modulators and uses thereof” (Seragon Pharmaceuticals, Inc., priority 2012, dated 2016).
# Key:
# [1] = system: MCF-7 cells; experiment: Breast Cancer Cell Viability Assays (MCF-7, CellTiter-Glo); format: cell-based; details: 5 days' compound exposure; for IC50: Homo sapiens, MCF7, 120 h
# Outline: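 Percent viability, background-subtracted against untreated wells, was taken from CellTiter-Glo luminescence after 5 days' exposure of MCF-7 cells. Compounds were tested at eleven semilog concentrations, final 0.3–0.000003 μM, in RPMI containing 10% FBS.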
# [2] = biological target: T1, ER-α in MCF-7 cells (Homo sapiens, UniProt P03372); experiment: Breast Cancer Cell ER-α In Cell Western Assay (SP1); format: cell-based; details: 4 or 24 hr post compound addition; for Emax: MCF7, SP1 antibody, read-out: ER-α In Cell Western Assay (SP1) Max Response; for DC50: SP1 antibody, read-out: ER-α In Cell Western Assay (SP1) IC50
# T1 construct: endogenous in cells; host or cells: MCF-7
# T1 sequence (P03372 1-595): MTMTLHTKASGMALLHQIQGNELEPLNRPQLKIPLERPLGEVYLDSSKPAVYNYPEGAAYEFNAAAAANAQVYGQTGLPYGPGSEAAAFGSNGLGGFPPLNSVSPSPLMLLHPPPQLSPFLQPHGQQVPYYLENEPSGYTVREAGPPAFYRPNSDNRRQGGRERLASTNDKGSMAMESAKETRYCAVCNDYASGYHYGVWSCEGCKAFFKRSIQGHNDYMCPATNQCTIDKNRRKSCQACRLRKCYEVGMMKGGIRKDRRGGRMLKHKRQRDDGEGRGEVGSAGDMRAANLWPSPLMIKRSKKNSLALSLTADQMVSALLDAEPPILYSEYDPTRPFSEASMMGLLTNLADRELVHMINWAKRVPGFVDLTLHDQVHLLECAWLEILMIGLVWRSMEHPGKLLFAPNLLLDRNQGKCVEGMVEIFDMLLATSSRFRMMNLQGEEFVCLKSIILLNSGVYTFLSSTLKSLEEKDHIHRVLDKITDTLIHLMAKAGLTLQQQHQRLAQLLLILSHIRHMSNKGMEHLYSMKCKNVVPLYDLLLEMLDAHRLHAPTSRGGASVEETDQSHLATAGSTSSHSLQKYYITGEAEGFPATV
# Outline: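 ER-α levels quantified by in-cell western: SP1 signal normalised to DRAQ5 DNA stain, relative to untreated cells (% ER). Compounds at 0.3–0.000003 μM final, 11-point semilog series, 4 or 24 h exposure of MCF-7 cells grown in charcoal-stripped serum.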
SMILES,IC50 [1] [µM],Emax [2] [%],DC50 [2] [µM],MCF7 Viability Assay Max Response [1]
"O=C(O)/C=C/c1ccc(/C(=C(\c2ncc(Cl)cc2Cl)C2CCC2)c2ccc3[nH]nc(F)c3c2)cc1 [Example 146, (E)-3-(4-((E)-2-Cyclobutyl-2-(3,5-dichloropyridin-2-yl)-1-(3-fluoro-1H-indazol-5-yl)vinyl)phenyl)acrylic acid]",≤ 0.1,≥ 40,≤ 0.1,++ (++ = a single % value ≧ 40%)
"COc1cccc(/C(=C(\c2ccc(/C=C/C(=O)O)cc2)c2ccc3[nH]nc(F)c3c2)C2CCC2)n1 [Example 147, (E)-3-(4-((E)-2-Cyclobutyl-1-(3-fluoro-1H-indazol-5-yl)-2-(6-methoxypyridin-2-yl)vinyl)phenyl)acrylic acid]",≤ 0.1,≥ 40,≤ 0.1,++ (++ = a single % value ≧ 40%)
"Cc1cc(/C(=C(\c2ccc(/C=C/C(=O)O)cc2)c2ccc3[nH]nc(F)c3c2)C2CCC2)c(C)s1 [Example 150, (E)-3-(4-((E)-2-Cyclobutyl-2-(2,5-dimethylthiophen-3-yl)-1-(3-fluoro-1H-indazol-5-yl)vinyl)phenyl)acrylic acid]",≤ 0.1,≥ 40,≤ 0.1,++ (++ = a single % value ≧ 40%)
"CC/C(=C(/c1ccc(/C=C/C(=O)O)cc1)c1ccc2[nH]ncc2c1)c1ccc(C#N)cc1F [Example 151, (E)-3-(4-((E)-2-(4-Cyano-2-fluorophenyl)-1-(1H-indazol-5-yl)but-1-en-1-yl)phenyl)acrylic acid]",≤ 0.1,≥ 40,≤ 0.1,++ (++ = a single % value ≧ 40%)
"O=C(O)/C=C/c1ccc(/C(=C(\c2ccc(F)cc2Cl)C2CC2)c2ccc3[nH]nc(F)c3c2)cc1 [Example 152, (E)-3-(4-((E)-2-(2-Chloro-4-fluorophenyl)-2-cyclopropyl-1-(3-fluoro-1H-indazol-5-yl)vinyl)phenyl)acrylic acid]",≤ 0.1,≥ 40,≤ 0.1,++ (++ = a single % value ≧ 40%)
"N#Cc1cc(F)ccc1/C(=C(\c1ccc(/C=C/C(=O)O)cc1)c1ccc2[nH]nc(F)c2c1)C1CC1 [Example 155, (E)-3-(4-((E)-2-(2-Cyano-4-fluorophenyl)-2-cyclopropyl-1-(3-fluoro-1H-indazol-5-yl)vinyl)phenyl)acrylic acid]",≤ 0.1,≥ 40,≤ 0.1,++ (++ = a single % value ≧ 40%)
"N#Cc1ccc(/C(=C(\c2ccc(/C=C/C(=O)O)cc2)c2ccc3[nH]nc(F)c3c2)C2CC2)c(F)c1 [Example 156, (E)-3-(4-((E)-2-(4-Cyano-2-fluorophenyl)-2-cyclopropyl-1-(3-fluoro-1H-indazol-5-yl)vinyl)phenyl)acrylic acid]",≤ 0.1,≥ 40,≤ 0.1,++ (++ = a single % value ≧ 40%)
"COc1cnc(/C(=C(\c2ccc(/C=C/C(=O)O)cc2)c2ccc3[nH]nc(F)c3c2)C2CC2)c(C)c1 [Example 158, (E)-3-(4-((E)-2-Cyclopropyl-1-(3-fluoro-1H-indazol-5-yl)-2-(5-methoxy-3-methylpyridin-2-yl)vinyl)phenyl)acrylic acid]",≤ 0.1,≥ 40,≤ 0.1,++ (++ = a single % value ≧ 40%)
"O=C(O)/C=C/c1cnc(/C(=C(\c2ccccc2)C2CCC2)c2ccc3[nH]nc(F)c3c2)cn1 [Example 159, (E)-3-(5-((Z)-2-Cyclobutyl-1-(3-fluoro-1H-indazol-5-yl)-2-phenylvinyl)pyrazin-2-yl)acrylic acid]",≤ 0.1,≥ 40,≤ 0.1,++ (++ = a single % value ≧ 40%)
"O=C(O)/C=C/c1ccc(/C(=C(\c2ccccc2)C2CCC2)c2ccc3[nH]nc(F)c3c2)nc1 [Example 160, (E)-3-(6-((Z)-2-Cyclobutyl-1-(3-fluoro-1H-indazol-5-yl)-2-phenylvinyl)pyridin-3-yl)acrylic acid]",≤ 0.1,≥ 40,≤ 0.1,++ (++ = a single % value ≧ 40%)

# Further lines, with some results ahead:
IC50 [1] [µM],Emax [2] [%],DC50 [2] [µM],SMILES,MCF7 Viability Assay Max Response [1]
≤ 0.1,≥ 40,≤ 0.1,"O=C(O)/C=C/c1ccc(/C(=C(\c2ncccc2F)C2CCC2)c2ccc3[nH]nc(F)c3c2)cc1 [Example 142, (E)-3-(4-((E)-2-Cyclobutyl-1-(3-fluoro-1H-indazol-5-yl)-2-(3-fluoropyridin-2-yl)vinyl)phenyl)acrylic acid]",++ (++ = a single % value ≧ 40%)
≤ 0.1,≥ 40,≤ 0.1,"O=C(O)/C=C/c1ccc(/C(=C(\c2ncccc2Cl)C2CCC2)c2ccc3[nH]nc(F)c3c2)cc1 [Example 143, (E)-3-(4-((E)-2-(3-Chloropyridin-2-yl)-2-cyclobutyl-1-(3-fluoro-1H-indazol-5-yl)vinyl)phenyl)acrylic acid]",++ (++ = a single % value ≧ 40%)
≤ 0.1,≥ 40,≤ 0.1,"Cc1cccnc1/C(=C(\c1ccc(/C=C/C(=O)O)cc1)c1ccc2[nH]nc(F)c2c1)C1CCC1 [Example 144, (E)-3-(4-((E)-2-Cyclobutyl-1-(3-fluoro-1H-indazol-5-yl)-2-(3-methylpyridin-2-yl)vinyl)phenyl)acrylic acid]",++ (++ = a single % value ≧ 40%)
≤ 0.1,≥ 40,≤ 0.1,"O=C(O)/C=C/c1ccc(/C(=C(\c2ncccc2C(F)(F)F)C2CCC2)c2ccc3[nH]nc(F)c3c2)cc1 [Example 145, (E)-3-(4-((E)-2-Cyclobutyl-1-(3-fluoro-1H-indazol-5-yl)-2-(3-(trifluoromethyl)pyridin-2-yl)vinyl)phenyl)acrylic acid]",++ (++ = a single % value ≧ 40%)
≤ 0.1,≥ 40,≤ 0.1,"N#Cc1n[nH]c2ccc(/C(=C(/c3ccccc3)C3CCC3)c3ccc(/C=C/C(=O)O)cc3)cc12 [Example 148, (E)-3-(4-((E)-1-(3-Cyano-1H-indazol-5-yl)-2-cyclobutyl-2-phenylvinyl)phenyl)acrylic acid]",++ (++ = a single % value ≧ 40%)
≤ 0.1,≥ 40,≤ 0.1,"Cc1sccc1/C(=C(\c1ccc(/C=C/C(=O)O)cc1)c1ccc2[nH]nc(F)c2c1)C1CCC1 [Example 149, (E)-3-(4-((E)-2-Cyclobutyl-1-(3-fluoro-1H-indazol-5-yl)-2-(2-methylthiophen-3-yl)vinyl)phenyl)acrylic acid]",++ (++ = a single % value ≧ 40%)
≤ 0.1,≥ 40,≤ 0.1,"O=C(O)/C=C/c1ccc(/C(=C(\c2ccccc2Cl)C2CC2)c2ccc3[nH]nc(F)c3c2)cc1 [Example 153, (E)-3-(4-((E)-2-(2-Chlorophenyl)-2-cyclopropyl-1-(3-fluoro-1H-indazol-5-yl)vinyl)phenyl)acrylic acid]",++ (++ = a single % value ≧ 40%)
≤ 0.1,≥ 40,≤ 0.1,"O=C(O)/C=C/c1ccc(/C(=C(\c2ccccc2F)C2CC2)c2ccc3[nH]nc(F)c3c2)cc1 [Example 154, (E)-3-(4-((E)-2-Cyclopropyl-1-(3-fluoro-1H-indazol-5-yl)-2-(2-fluorophenyl)vinyl)phenyl)acrylic acid]",++ (++ = a single % value ≧ 40%)
≤ 0.1,≥ 40,≤ 0.1,"O=C(O)/C=C/c1ccc(/C(=C(\c2ccncc2Cl)C2CC2)c2ccc3[nH]nc(F)c3c2)cc1 [Example 157, (E)-3-(4-((E)-2-(3-Chloropyridin-4-yl)-2-cyclopropyl-1-(3-fluoro-1H-indazol-5-yl)vinyl)phenyl)acrylic acid]",++ (++ = a single % value ≧ 40%)
≤ 0.1,≥ 40,≤ 0.1,"O=C(O)/C=C/c1ncc(/C(=C(\c2ccccc2)C2CCC2)c2ccc3[nH]nc(F)c3c2)cc1F [Example 161, (E)-3-(5-((Z)-2-Cyclobutyl-1-(3-fluoro-1H-indazol-5-yl)-2-phenylvinyl)-3-fluoropyridin-2-yl)acrylic acid]",++ (++ = a single % value ≧ 40%)
